For three compounds, EC50 results are on record in US9562053B2, “Benzo-fused heterocyclic derivatives useful as agonists of GPR120” (Janssen Pharmaceutica NV, priority 2013, dated 2017).

pEC50: −log10 of the molar value.

Holding throughout (type): cell-based
The target in experiment [1] is T1, Human GPR120 short form (Homo sapiens, UniProt Q5NUL3).
T1 construct: expressed in transfected cells
T1 sequence (Q5NUL3 1-361): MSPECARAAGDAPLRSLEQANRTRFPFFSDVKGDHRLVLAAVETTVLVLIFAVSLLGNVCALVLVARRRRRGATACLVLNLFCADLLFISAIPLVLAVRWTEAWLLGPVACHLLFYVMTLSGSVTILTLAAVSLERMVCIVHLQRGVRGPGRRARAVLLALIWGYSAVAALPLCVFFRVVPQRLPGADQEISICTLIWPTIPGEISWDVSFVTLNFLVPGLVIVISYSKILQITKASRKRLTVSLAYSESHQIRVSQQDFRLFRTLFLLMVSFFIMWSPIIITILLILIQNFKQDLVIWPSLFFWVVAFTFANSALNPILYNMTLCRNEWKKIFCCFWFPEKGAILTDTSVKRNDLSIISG
Put plainly: Human GPR120 in Calcium Flux Assay, Procedure Calcium B (4200 cells/well). The source says: (§1) This in vitro assay serves to assess test compound agonist activity against the short splice variant (SVS with Accession number NM_001195755.1 confirmed by sequencing data) of the GPR120 receptor. The Human Short splice variant #2 (NM_001195755.1) is missing an in-frame coding exon compared to variant 1 (the Human Long splice variant NM_181745.3), resulting in a shorter isoform (GPR120-S) lacking a 16 aa protein segment compared to isoform GPR120-L. The assay platform utilizes HEK-293 cells stably transfected to express the Human GPR120 short form. These cells are first loaded with the Ca^+2 sensitive dye, Fluo-4 NW. Upon stimulation, intracellular released Ca^+2 can bind to the dye and alter its fluorescence intensity. This increase in fluorescence signal, and thus the flux in intracellular [Ca^+2], is detected and quantitated by fluorescence imaging using a FLIPR reader. The effect of the agonist is measured as a function of concentration and used to calculate an EC50 based upon a response curve.
In this procedure 4200 cells/well were employed.
(§2) A Human GPR120 clone (Genbank accession number NM_001195755.1) was placed into the pcDNA3.1 mammalian expression vector carrying the neomycin resistance gene. A stable mammalian cell was generated by placing the above clone into a HEK293 background. Clonal cells responding to long chain fatty acids had expression levels of GPR120 confirmed by RT-qPCR. Human HEK-GPR120 cells were cultured in Dulbecco's Modified Eagle's Medium (DMEM)/F12 medium supplemented with 10% fetal bovine serum (FBS), 1% L-Glutamine and 1% penicillin/streptomycin and 0.5 mg/ml G-418. Cells were split 2 times a week to keep the cells in the log-phase growth.
(§3) In preparation for the assay, HEK cells stably transfected with Human GPR120 (2.5K cells per well in 25 uL growth medium) were seeded into 384-well plates and then incubated overnight (37° C., 5% CO2). The next day, the media was changed to 20 μl assay buffer and the cell starved for 1 h at 37° C. The dye loading solution (2× dye) was prepared using 10 ml assay buffer, 100 μl of 250 mM probenecid, 1 bottle of Component A, and 20 μl of dye in DMSO. Twenty μl of the 2× dye loading buffer was then added to each well. The plates were incubated at 37° C. for 30 min, then at room temperature for an additional 15 minutes, before performing the assay on FLIPR.
(§4) Test compounds were prepared in assay buffer (2 μl of test compound+198 μl assay buffer, final DMSO in assay plate is 0.2%) at the desired concentration, more particularly at 100 μM, 50 μM, 25 μM, 12.5 μM, 6.25 μM, 3.125 μM, 1.562 μM, 0.781 μM, 0.391 μM, 0.195 μM, 0.098 μM, 0.049 μM, 0.024 μM and 0.012 μM.
(§5) The assay was performed on a FLIPR plate reader using the following parameters. Baseline was read for 10 seconds at 1 sec intervals. The program was set to transfer 10 μL of ligand from compound plate to cell plate after baseline reading. Aspiration was executed at: 10 μl/sec speed, 4.6 μl height; Dispensing was executed at: 30 μl/sec speed, 45 μl height. After compound addition, each well was read for 300 sec, with measurements collected at 1 sec intervals.
(§6) The kinetic data from the FLIPR was based upon a 5 minute window for data collection. The fluorescence of each sample well was used for individual calculations of a normalized RFU value, which was defined as maximum response minus the minimum response. The normalized fluorescence reading (RFU) was calculated as follows: RFU=Fmax−Fmin
(§7) The data were fitted to a sigmoidal dose-response curve with a variable Hill slope (<2) using nonlinear regression with GraphPad Prism 5.0 to calculate the EC50 values. The Fitting Equation was: Y=Bottom+(Top−Bottom)/(1+10^((LogEC50−X)*HillSlope)), where X is the log of the concentration and Y is the response.
On the technique in general: A change in cytosolic calcium serves as a functional read-out for many receptors and channels.

Experiment [2] concerns the target T1, Human GPR120 short form. The experiment in a line: Human GPR120 in Calcium Flux Assay, Procedure Calcium A (2500 cells/well).
From the text: as §1
In this procedure 2500 cells/well were employed.
as §2, §3, §4, §5, §6, §7

Experiment [3] has as its target T2, short form of the GPR120 receptor (Homo sapiens, UniProt Q5NUL3).
T2 construct: host or cells: PathHunter CHO-K1 GPR120S β-Arrestin Cell Line
T2 sequence (Q5NUL3 1-361): T1 sequence (Q5NUL3 1-361)
Put plainly: Human GPR120 DiscoveRx PathHunter Beta-Arrestin Assay, Procedure β-arrestin B (5000 cells/well). The source says: The binding of an agonist (medium/long chain fatty acids or small molecule agonists) to the G-protein-coupled receptor GPR120 activates phospholipase C, leading to release of intracellular Ca^+2 through the generation of inositol 1,4,5-trisphosphate (InsP3 or IP3). GPR120 activation can also trigger intracellular signaling via recruitment of β-Arrestin. In the present method, agonist-induced activation of the human GPR120 receptor is monitored through the use of PathHunter CHO-K1 GPR120 β-Arrestin Cell Line engineered by DiscoveRx, as detailed below. The cell lines are designed to co-express both the ProLink/Enzyme Donor (PK)-tagged GPCR and the Enzyme Activator (EA)-tagged β-Arrestin fusion proteins. Upon GPR120 receptor stimulation/activation, the EA-tagged β-Arrestin portion is translocated to the tagged receptor, where the two enzyme fragments are brought within close proximity. Under these conditions, these fragments can interact and form an active Beta-gal enzyme complex through Enzyme Fragment Complementation (EFC). This active Beta-gal complex can enzymatically hydrolyse the substrate to produce a detectable light signal; therefore, activation as a function of agonist concentration can be expressed as an EC50 value to determine relative compound activities. This in vitro assay therefore serves to assess compound agonist activity of the GPR120.
In Procedure β-arrestin B the cells used were PathHunter CHO-K1 GPR120S β-Arrestin Cell Line, expressing the short form of the GPR120 receptor (Accession #NM_181745), with 5000 cells/well.
The selected CHO-K1 GPR120 β-Arrestin cells were cultured in Ham's F12 media supplemented with 10% fetal bovine serum (FBS), 1% Glutamine, 1×p/s, 800 μg/ml G418 and 300 μg/ml Hygromycin B (for selection). Cell stocks were maintained and grown in a sub-confluent state using standard cell culture procedures. The day before the experiment, the cells were harvested with non-enzymatic cell dissociation buffer and re-suspended in complete growth media at the desired concentration. A Corning 384-plate was then seeded with the proper number of cells in a volume of 25 μL, per well. The seeded plates were incubated overnight at 37° C.
On the day of the experiment, the Assay Buffer containing (a) HBSS with Ca^++ and Mg^++, (b) 20 mM HEPES, and (c) 0.1% BSA stabilizer (pH 7.4) was prepared. The growth medium was gently removed from the cell plates and 20 μL of Assay Buffer added to each well. The plate was then incubated at 37° C. for 60 mins. Test compounds were serially diluted in Assay Buffer to desired concentrations (more particularly, to one or more of the following μM concentrations: 25 μM, 12.5 μM, 6.25 μM, 3.125 μM, 1.562 μM, 0.781 μM, 0.391 μM, 0.195 μM, 0.098 μM, 0.049 μM, 0.024 μM, 0.012 μM). Five μl of compound dilution was then added to each well and the plate incubated at 37° C. for 90 mins. The detection reagents were prepared according to the manufacture's instruction. Twelve μL of the detection reagents were added to each well and the plate incubated at room temperature for 60 mins.
The plates were read on an EnVision instrument, using Protocol name: Luminescence, Plate type: 384 Costar, Measurement height: 3 mm, Measurement time: 1 s, Aperture: 384 Plate aperture. The % activity relative to the positive control was calculated using the following equation:
The % Activity values were plotted versus the concentration of test compound and fitted to a sigmoidal dose-response curve with a Hill slope=1 (fixed value) using nonlinear regression with GraphPad Prism 5.0 to calculate the EC50 values. The Fitting Equation was: Y=Bottom+(Top−Bottom)/(1+10^((LogEC50−X)*HillSlope)), where X is the log of the concentration and Y is the response.

Regarding `Cc1c(CCC(=O)O)ccc(OCc2cc(Cl)cc3sc(C(C)(C)C)nc23)c1C` [Compound 104, 3-{4-[(2-tert-Butyl-6-chloro-1,3-benzothiazol-4-yl)methoxy]-2,3-dimethylphenyl}propanoic acid], the results for the pEC50 in experiment [1], in experiment [2] and in experiment [3] were 6.30, 5.73 and 5.81, respectively.

For `CCc1nc2c(COc3ccc(CCC(=O)O)c(C)c3C)cc(F)cc2s1` [Compound 105, 3-{4-[(2-Ethyl-6-fluoro-1,3-benzothiazol-4-yl)methoxy]-2,3-dimethylphenyl}propanoic acid], the pEC50 (as a rule, −log10 of the EC50, conventionally taken in molar units) in experiment [1] is 7.04; in experiment [2] it was 6.69; in experiment [3] it was 6.40.

In the case of `Cc1c(CCC(=O)O)ccc(OCc2cc(Cl)cc3sc(CC(C)C)nc23)c1C` [Compound 110, 3-(4-{[6-Chloro-2-(2-methylpropyl)-1,3-benzothiazol-4-yl]methoxy}-2,3-dimethylphenyl)propanoic acid], the pEC50 in experiment [1] is 6.02; in experiment [3], 5.48.
